The text below walks through data of patent publication US10253012B2, “Method and apparatus for preparation of lactide using lactide purification process” (priority 2015, dated 2019).

The series in a line: Solubility of lactide in different solvents. The class given is physicochemical.

A value given as a limit tells only on which side of the number the result lay.

`CC1OC(=O)C(C)OC1=O` (centres unmarked) [lactide]: the “solubility of lactide in ethanol” value (ethanol as first solvent, temperature maintained at 20 °C) is on record as ≤ 10 wt %. Also, where the note is “solvent γ-butyrolactone, no solid crystal formed in condenser at 5 °C”, the “solubility of lactide in γ-butyrolactone (in words)” value was “high solubility”.
